Reference: patent publication EP0933350A1, “Tricyclic retinoids, methods for their production and use” (LIGAND PHARMACEUTICALS INCORPORATED, priority 1994, dated 1996)

Assays:
RXRβ [1] = biological target: T1, RXRβ (Mus musculus, UniProt P28704); test: co-transfection assay (RAR/RXR agonist activity, luciferase reporter in CV-1 cells); assay type: cell-based; details: read-out: RXRβ Pot
T1 sequence (P28704 1-520): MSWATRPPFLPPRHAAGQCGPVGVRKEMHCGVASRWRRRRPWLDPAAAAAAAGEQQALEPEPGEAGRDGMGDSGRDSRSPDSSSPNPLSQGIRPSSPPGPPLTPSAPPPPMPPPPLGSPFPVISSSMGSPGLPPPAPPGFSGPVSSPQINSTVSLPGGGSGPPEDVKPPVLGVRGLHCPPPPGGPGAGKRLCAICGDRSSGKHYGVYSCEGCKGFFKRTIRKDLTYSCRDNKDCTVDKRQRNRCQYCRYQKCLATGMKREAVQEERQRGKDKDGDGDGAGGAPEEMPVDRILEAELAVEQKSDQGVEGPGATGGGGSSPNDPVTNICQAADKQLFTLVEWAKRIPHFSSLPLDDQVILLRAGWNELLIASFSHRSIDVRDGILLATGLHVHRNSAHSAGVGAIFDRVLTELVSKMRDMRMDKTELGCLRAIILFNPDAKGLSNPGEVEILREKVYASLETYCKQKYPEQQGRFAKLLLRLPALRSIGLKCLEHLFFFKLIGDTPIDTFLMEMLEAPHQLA

RXRα = biological target: T2, RXRα (Homo sapiens, UniProt P19793); test: as above; assay type: cell-based; details: read-out: RXRα Pot
T2 sequence (P19793 1-462): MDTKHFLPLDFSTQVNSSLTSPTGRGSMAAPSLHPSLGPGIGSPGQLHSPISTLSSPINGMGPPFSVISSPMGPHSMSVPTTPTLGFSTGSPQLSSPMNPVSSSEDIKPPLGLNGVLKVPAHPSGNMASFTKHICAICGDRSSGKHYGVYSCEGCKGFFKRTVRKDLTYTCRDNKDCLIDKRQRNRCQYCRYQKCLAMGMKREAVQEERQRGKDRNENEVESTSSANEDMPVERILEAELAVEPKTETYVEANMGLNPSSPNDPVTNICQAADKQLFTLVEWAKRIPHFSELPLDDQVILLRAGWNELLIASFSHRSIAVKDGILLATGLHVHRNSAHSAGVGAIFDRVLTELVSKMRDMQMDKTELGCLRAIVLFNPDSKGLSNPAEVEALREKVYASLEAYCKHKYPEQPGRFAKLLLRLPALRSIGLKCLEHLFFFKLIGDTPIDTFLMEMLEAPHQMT

ME 180 cell line = test: incorporation of 3H-thymidine (antiproliferative); assay type: cell-based; details: Homo sapiens, 96 hours, radiolabeled thymidine incorporation, read-out: TdR IC50
RARβ = biological target: T3, RARβ (Homo sapiens, UniProt P10826); test: competitive binding of tritiated retinoids to retinoid receptors; details: competition with tritiated retinoid, Cheng-Prussof equation
T3 sequence (P10826 1-455): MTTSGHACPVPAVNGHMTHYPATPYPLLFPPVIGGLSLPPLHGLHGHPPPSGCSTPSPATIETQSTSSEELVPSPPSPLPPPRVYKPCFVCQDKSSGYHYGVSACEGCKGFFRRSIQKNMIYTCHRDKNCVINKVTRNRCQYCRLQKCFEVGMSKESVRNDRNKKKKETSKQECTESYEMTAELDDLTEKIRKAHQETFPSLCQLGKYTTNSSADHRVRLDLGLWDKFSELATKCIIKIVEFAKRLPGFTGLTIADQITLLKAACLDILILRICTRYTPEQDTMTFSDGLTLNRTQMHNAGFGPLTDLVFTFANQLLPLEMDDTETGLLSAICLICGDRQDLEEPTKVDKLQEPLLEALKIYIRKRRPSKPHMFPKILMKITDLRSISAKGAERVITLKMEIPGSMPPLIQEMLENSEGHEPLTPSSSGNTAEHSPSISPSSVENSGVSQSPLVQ

RPMI 8226 cell line [2] = test: incorporation of 3H-thymidine (antiproliferative); assay type: cell-based; details: Homo sapiens, 96 hours, radiolabeled thymidine incorporation, read-out: TdR IC50
RXRβ [3] = biological target: T1, RXRβ; test: competitive binding of tritiated retinoids to retinoid receptors; details: competition with tritiated retinoid, Cheng-Prussof equation
TPA induction of ODC = test: ornithine decarboxylase (ODC) assay: inhibition of TPA induction of ODC; assay type: cell-based; details: concentration required to inhibit the TPA induction of ODC by 80 percent
RPMI 8226 cell line [4] = test: viability (tetrazolium dye, mitochondrial function); assay type: cell-based; details: Homo sapiens, 96 hours, read-out: MTS IC50
RARα [5] = biological target: T4, RARα (Homo sapiens, UniProt P10276); test: co-transfection assay (RAR/RXR agonist activity, luciferase reporter in CV-1 cells); assay type: cell-based; details: read-out: RARα Pot
T4 sequence (P10276 1-462): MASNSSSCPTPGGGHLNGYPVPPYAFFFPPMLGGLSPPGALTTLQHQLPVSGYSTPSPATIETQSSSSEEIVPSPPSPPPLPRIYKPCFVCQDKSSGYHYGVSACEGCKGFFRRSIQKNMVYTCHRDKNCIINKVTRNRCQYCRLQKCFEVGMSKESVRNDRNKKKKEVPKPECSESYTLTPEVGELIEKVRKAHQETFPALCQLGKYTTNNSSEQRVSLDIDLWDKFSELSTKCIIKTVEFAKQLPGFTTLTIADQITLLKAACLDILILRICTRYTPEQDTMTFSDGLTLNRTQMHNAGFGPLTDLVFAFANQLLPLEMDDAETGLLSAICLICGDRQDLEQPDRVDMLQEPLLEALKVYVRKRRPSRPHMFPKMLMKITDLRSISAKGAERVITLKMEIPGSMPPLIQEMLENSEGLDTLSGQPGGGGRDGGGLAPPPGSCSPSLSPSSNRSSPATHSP

RARγ [6] = biological target: T5, RARγ (Homo sapiens, UniProt P13631); test: as above; assay type: cell-based; details: potency = EC50, agonist, 40 hours, read-out: RARγ Pot
T5 sequence (P13631 1-454): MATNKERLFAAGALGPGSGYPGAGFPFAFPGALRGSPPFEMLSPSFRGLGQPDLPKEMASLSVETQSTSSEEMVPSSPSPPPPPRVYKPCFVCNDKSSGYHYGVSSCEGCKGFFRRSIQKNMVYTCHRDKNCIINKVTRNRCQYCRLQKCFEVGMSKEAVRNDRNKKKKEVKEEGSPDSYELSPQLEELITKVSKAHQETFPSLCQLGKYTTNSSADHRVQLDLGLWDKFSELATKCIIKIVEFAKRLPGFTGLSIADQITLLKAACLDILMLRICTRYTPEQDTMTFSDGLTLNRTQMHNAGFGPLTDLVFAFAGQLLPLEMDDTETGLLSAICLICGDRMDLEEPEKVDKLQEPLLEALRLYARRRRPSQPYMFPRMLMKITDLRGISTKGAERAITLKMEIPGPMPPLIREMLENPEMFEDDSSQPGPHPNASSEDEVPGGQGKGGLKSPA

RARγ [7] = biological target: T5, RARγ; test: competitive binding of tritiated retinoids to retinoid receptors; details: competition with tritiated retinoid, Cheng-Prussof equation
RARα [8] = biological target: T4, RARα; test: as above; details: competition with tritiated retinoid, Cheng-Prussof equation

For `CC(/C=C/C=C1/CCOc2cc3c(cc21)C(C)(C)CCC3(C)C)=C\C(=O)O` [Compound 144b], the EC50 (RXRβ [1]) was 45 nM, the EC50 (RXRα) was 36 nM and the IC50 (ME 180 cell line) was 4 nM. The Kd (RARβ) was 313 nM, the IC50 (RPMI 8226 cell line [2]) was 0.6 nM and the Kd (RXRβ [3]) was 146 nM. The IC80 (TPA induction of ODC) was 0.6 nM, the IC50 (RPMI 8226 cell line [4]) was 7.5 nM and the EC50 (RARα [5]) was 14 nM. The EC50 (RARγ [6]) was 2 nM, the Kd (RARγ [7]) was 494 nM and the Kd (RARα [8]) was 145 nM.

For `CC(/C=C/CN1CCCCc2cc3c(cc21)C(C)(C)CCC3(C)C)=C\C(=O)O` [Compound 138b, (2E,4E)-3-Methyl-6-[7,7,10,10-tetramethyl-2,3,4,5,7,8,9,10-octahydronaphtho[2,3-6]azepinyl)hexa-2,4-dienoic acid], the EC50 (RXRβ [1]) was 204 nM, the EC50 (RXRα) was 422 nM and the Kd (RARβ) was > 1000 nM. For the same compound, the Kd (RXRβ [3]) was 276 nM, the EC50 (RARα [5]) was > 10000 nM and the EC50 (RARγ [6]) was > 10000 nM. For the same compound, the Kd (RARγ [7]) was > 1000 nM and the Kd (RARα [8]) was > 1000 nM.

`CC(/C=C/C=C1\CCCc2cc3c(cc21)C(C)(C)CCC3(C)C)=C\C(=O)O` [Compound 109b, (2E,4E)-3-Methyl-6-[(E)-3,4,5,6,7,8-hexahydro-5,5,8,8-tetramethyl-2H-anthracen-1-ylidene]hexa-2,4-dienoic acid] showed an EC50 (RXRβ [1]) of 64 nM, an EC50 (RXRα) of 2020 nM and an IC50 (ME 180 cell line) of 5 nM. The Kd (RARβ) was 68 nM, the IC50 (RPMI 8226 cell line [2]) was 0.05 nM and the Kd (RXRβ [3]) was 332 nM. For the same compound, the IC80 (TPA induction of ODC) was 0.08 nM, the IC50 (RPMI 8226 cell line [4]) was 10 nM and the EC50 (RARα [5]) was 28 nM. For the same compound, the EC50 (RARγ [6]) was 1 nM, the Kd (RARγ [7]) was 279 nM and the Kd (RARα [8]) was 33 nM.

Work on `CC(/C=C/C=C1\CCOc2cc3c(cc21)C(C)(C)CCC3(C)C)=C\C(=O)O` [Compound 119b, (2E,4E)-3-Methyl-6-[(E)-2,3,6,7,8,9-hexahydro-6,6,9,9-tetramethylbenzo[g]chromen-4-ylidene]hexa-2,4-dienoic acid] yielded an EC50 (RXRβ [1]) of 1140 nM, an EC50 (RXRα) of 1660 nM and an IC50 (ME 180 cell line) of 0.6 nM. It also gave a Kd (RARβ) of 50 nM, an IC50 (RPMI 8226 cell line [2]) of 0.5 nM and a Kd (RXRβ [3]) of 372 nM. The IC50 (RPMI 8226 cell line [4]) was 2.6 nM, the EC50 (RARα [5]) was 20 nM and the EC50 (RARγ [6]) was 1 nM. The Kd (RARγ [7]) was 87 nM and the Kd (RARα [8]) was 24 nM.

`CC(/C=C/C=C1/CCCc2cc3c(cc21)C(C)(C)CCC3(C)C)=C\C(=O)O` [Compound 101b, (2E,4E)-3-Methyl-6-[(Z)-3,4,5,6,7,8-hexahydro-5,5,8,8-tetramethyl-2H-anthracen-1-ylidene]hexa-2,4-dienoic acid] showed an EC50 (RXRβ [1]) of 55 nM, an EC50 (RXRα) of 35 nM and an IC50 (ME 180 cell line) of 8 nM. For the same compound, the Kd (RARβ) was 299 nM, the IC50 (RPMI 8226 cell line [2]) was 6 nM and the Kd (RXRβ [3]) was 30 nM. The IC80 (TPA induction of ODC) was 0.78 nM, the IC50 (RPMI 8226 cell line [4]) was 100 nM and the EC50 (RARα [5]) was 32 nM. For the same compound, the EC50 (RARγ [6]) was 7 nM, the Kd (RARγ [7]) was 541 nM and the Kd (RARα [8]) was 225 nM.
